# Results: patent US7598234B2, “Steroid derived antibiotics” (Brigham Young University, priority 1998, dated 2009)
# What was measured:
# Type in all cases: cell-based
# Gram-negative bacteria [1] = test: MIC of ester and amide side chain compounds (Table 14); conditions: strain not given
# Protocol: (§1) Aliquots of 1 mL of the suspension were added to test tubes containing 1 mL TSB and incrementally varied concentrations of cholic acid derivatives and/or erythromycin or novobiocin. In the sensitization experiments, erythromycin or novobiocin were added 15 minutes later than the cholic acid derivatives. The samples were subjected to stationary incubation at 37° C. for 24 hours. Sample turbidity was determined by measuring absorption at 760 nm (HP 8453 UV-Visible Chemstation, Hewlett Packard). Additionally, an alliquot from each of the samples showing no measurable turbidity was subcultured on TSA plates (alliquots were diluted to provide fewer than 300 CFU). Colonies that grew on the subculture after overnight incubation were counted and the number of CFU/mL in the samples were calculated. The calculated values were compared to the number of CFU/mL in the original inoculum.
# (§2) Ester and amide side chains: Additional compounds, for example, compounds with amide and ester side chains, were tested.
# Gram-negative bacteria [2] = test: Sensitization to erythromycin, ester and amide side chain compounds (Table 14); conditions: Table 14; strain not given
# Protocol: as §1
# (§3) Ability to permeabilize outer membrane: Compounds 11, 106, and 108-114 (FIG. 1) were tested for antibiotic activity. They were also tested for the ability to permeabilize the outer membrane of Gram-negative bacteria, causing sensitization to hydrophobic antibiotics that cannot cross the outer membrane. The permeabilization of the outer membrane was measured using erythromycin and novobiocin.
# as §2
# Gram-negative bacteria [3] = test: Sensitization to novobiocin, ester and amide side chain compounds (Table 14); conditions: strain not given
# Protocol: as §1, §3, §2
SMILES,MIC (Gram-negative bacteria [1]) [µg/mL],a: concentration of cholic acid derivatives required to lower MIC of erythromycin to 1 μg/ML (Gram-negative bacteria [2]) [µg/mL],b: concentration of cholic acid derivatives required to lower MIC of novobiocin to 1 μg/ML (Gram-negative bacteria [3]) [µg/mL]
C[C@H](CCCO)[C@H]1CC[C@H]2[C@@H]3[C@H](NC(=O)CN)C[C@@H]4C[C@H](NC(=O)CN)CC[C@]4(C)[C@H]3C[C@H](NC(=O)CN)[C@]12C [Compound 209a],>100,25,75
C[C@H](CCCO)[C@H]1CC[C@H]2[C@@H]3[C@H](NC(=O)CCN)C[C@@H]4C[C@H](NC(=O)CCN)CC[C@]4(C)[C@H]3C[C@H](NC(=O)CCN)[C@]12C [Compound 209b],>100,40,75
CC(CCCO)C1CCC2C3C(NC(=O)C(N)CCCCN)CC4CC(NC(=O)C(N)CCCCN)CCC4(C)C3CC(NC(=O)C(N)CCCCN)C12C (stereo not drawn) [Compound 209c],85,45,60
C[C@H](CCCN(C)Cc1ccccc1)[C@H]1CC[C@H]2[C@@H]3[C@H](NC(=O)CN)C[C@@H]4C[C@H](NC(=O)CN)CC[C@]4(C)[C@H]3C[C@H](NC(=O)CN)[C@]12C [Compound 210a],80,6,18
C[C@H](CCCN(C)Cc1ccccc1)[C@H]1CC[C@H]2[C@@H]3[C@H](NC(=O)CCN)C[C@@H]4C[C@H](NC(=O)CCN)CC[C@]4(C)[C@H]3C[C@H](NC(=O)CCN)[C@]12C [Compound 210b],100,15,40
